Source: US9409952B2, “Peptide-compound cyclization method” (Chugai Seiyaku Kabushiki Kaisha, priority 2011, dated 2016)
Starred links: 1 amine or outer side, 2 acyl side, 3 side chain; linkers in the order of their positions; H or OH if unused. Positions of bridges follow the written chain, without caps; N, C: chain ends. Non-standard residues stand in square brackets, D forms with d. Residues, ends and D or L forms follow the SMILES beside them. *: point of attachment. Ala(1H-tetrazol-5-yl) = N[C@@H](Cc1nnn[nH]1)C(=O)O; Arg(Me2s) = CN=C(NC)NCCC[C@H](N)C(=O)O; X2 = O=C(C[C@H](N[*:1])C(F)(F)F)[*:2]; Lys(Me2) = CN(C)CCCC[C@H](N)C(=O)O; NMeF = CN[C@@H](Cc1ccccc1)C(=O)O; NMeL = CN[C@@H](CC(C)C)C(=O)O; NMeS = CN[C@@H](CO)C(=O)O; NMeA = CN[C@@H](C)C(=O)O; Piperidide = C1CCN(*)CC1; dNMeA = CN[C@H](C)C(=O)O; β3hA = C[C@H](N)CC(=O)O; Abu = CC[C@H](N)C(=O)O; Sar = CNCC(=O)O

Experiment: PAMPA (parallel artificial membrane permeability assay)
Format: in vitro ADME
Details: PAMPA
Summary of the method: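 Artificial membrane was 10% (w/v) egg lecithin plus 0.5% (w/v) cholesterol in dodecane on a PVDF filter. A 10 mM DMSO stock was added at 0.5% (v/v) to donor buffer (50 mM MOPSO, pH 6.5, 5.0% glycocholic acid). After 18 h at 37 °C, LC/MS or LC/UV gave donor and acceptor levels for Pe.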

Compared with `NS(=O)(=O)c1cc2c(cc1Cl)NCNS2(=O)=O` [hydrochlorothiazide, reference compound], `COCCc1ccc(OCC(O)CNC(C)C)cc1` (stereo not shown) [metoprolol, reference compound] is 48-fold higher in Papp at 18 h, 50 µM: 0.6 ×10⁻⁶ cm/s for the first, 29 ×10⁻⁶ cm/s for the second.

Same assay, conditions: PAMPA, pH 6.5

First: CC(C)C[C@@H]1NC(=O)[C@H](CCCCN(C)C)NC(=O)[C@@H]2CCCN2C(=O)[C@H](C)NC(=O)[C@H](CC(C)C)N(C)C(=O)[C@H](Cc2ccccc2)NC(=O)[C@H](CC(C)C)N(C)C(=O)[C@H](CC(C)C)N(C)C(=O)[C@H](Cc2ccccc2)NC(=O)CN(C)C(=O)C[C@@H](C(=O)N(C)[C@@H](Cc2ccccc2)C(=O)N[C@@H](C)C(=O)N2CCCCC2)NC1=O [DP-593] ([Sar]F[NMeL][NMeL]F[NMeL]AP[Lys(Me2)]LD[NMeF]A-Piperidide; lactam N-11)
Second: CC(C)C[C@@H]1NC(=O)[C@H](CCC(=O)O)NC(=O)[C@H](Cc2ccccc2)N(C)C(=O)[C@H](CC(C)C)NC(=O)[C@H](CC(C)C)N(C)C(=O)[C@H](Cc2ccccc2)NC(=O)[C@H](CC(C)C)N(C)C(=O)[C@H](CC(C)C)N(C)C(=O)[C@H](Cc2ccccc2)NC(=O)CN(C)C(=O)C[C@@H](C(=O)N(C)[C@@H](Cc2ccccc2)C(=O)N[C@@H](C)C(=O)N2CCCCC2)NC1=O [DP-596] ([Sar]F[NMeL][NMeL]F[NMeL]L[NMeF]ELD[NMeF]A-Piperidide; lactam N-11)
The Papp at 18 hours, 50 µM of the first is 2.9-fold lower: 1.1 ×10⁻⁶ cm/s for the first, 3.2 ×10⁻⁶ cm/s for the second.

Same assay, conditions: PAMPA; membrane permeation rate (Pe); 50 mM MOPSO buffer pH 6.5 with 5.0% glycocholic acid, 37° C., 18 hours; read-out: iPAMPA Pe

Compared with `CC(C)C[C@H]1C(=O)N(C)[C@@H](Cc2ccccc2)C(=O)N(C)[C@@H](CC(C)C)C(=O)N[C@H](C(=O)N(C)[C@@H](Cc2ccccc2)C(=O)N[C@@H](Cc2ccccc2)C(=O)N2CCCCC2)CC(=O)N[C@H](C(C)C)C(=O)N[C@@H](C)C(=O)N[C@@H]([C@@H](C)O)C(=O)N(C)[C@@H](C)C(=O)N[C@@H](Cc2ccccc2)C(=O)N1C` [DP-577] ([dV]AT[NMeA]F[NMeL][NMeF][NMeL]D[NMeF]F-Piperidide; lactam N-9), `CC(C)C[C@H]1C(=O)N(C)[C@@H](CC(C)C)C(=O)N[C@H](C(=O)N(C)[C@@H](Cc2ccccc2)C(=O)N[C@@H](C)C(=O)N2CCCCC2)CC(=O)N[C@H](C(C)C)C(=O)N(C)[C@@H](C)C(=O)N(C)[C@@H](Cc2ccccc2)C(=O)N(C)[C@@H](CC(C)C)C(=O)N[C@@H](Cc2c[nH]cn2)C(=O)N(C)CC(=O)N[C@@H](C(C)C)C(=O)N1C` [DP-585] ([dV][NMeA][NMeF][NMeL]H[Sar]V[NMeL][NMeL]D[NMeF]A-Piperidide; lactam N-10) is 16-fold higher in Papp at 18 hours, 50 µM: 0.94 ×10⁻⁶ cm/s for the first, 15 ×10⁻⁶ cm/s for the second.

Going from `CC[C@H](C)[C@H](NC(=O)[C@H](C)N(C)C(=O)[C@@H]1CC(=O)N(C)[C@H](C)C(=O)N(C)[C@@H](C)C(=O)N(C)[C@@H](Cc2ccccc2)C(=O)N(C)[C@@H](CC(C)C)C(=O)N[C@@H]([C@@H](C)O)C(=O)N(C)[C@@H](C)C(=O)N(C)[C@@H](CC(C)C)C(=O)N[C@@H](CO)C(=O)N1)C(=O)N1CCC[C@H]1C(=O)N[C@H](C(=O)N[C@@H](C)C(=O)N1CCCCC1)C(C)C` [DP-578] ([dNMeA][NMeA][NMeF][NMeL]T[NMeA][NMeL]SD[NMeA]IPVA-Piperidide; lactam N-9) to `CC[C@H](C)[C@@H]1NC(=O)[C@H](CC(C)C)N(C)C(=O)CN(C)C(=O)[C@H]([C@@H](C)O)NC(=O)[C@H](C)N(C)C(=O)C[C@@H](C(=O)N(C)[C@@H](CC(C)C)C(=O)N[C@@H](C)C(=O)N2CCCCC2)NC(=O)[C@H](CC(C)C)N(C)C(=O)[C@H](Cc2ccccc2)N(C)C(=O)[C@H](CC(C)C)N(C)C1=O` [DP-663] ([NMeA]T[Sar][NMeL]I[NMeL][NMeF][NMeL]D[NMeL]A-Piperidide; lactam N-9), the Papp at 18 hours, 50 µM rises from 3.4 ×10⁻⁶ cm/s to 43 ×10⁻⁶ cm/s (13-fold).

Going from `CC(C)C[C@@H]1NC(=O)CN(C)C(=O)[C@H](CCCCN(C)C)NC(=O)[C@H](CC(C)C)N(C)C(=O)[C@H](Cc2ccccc2)N(C)C(=O)[C@H](C)N(C)C(=O)[C@@H](C(C)C)NC(=O)C[C@@H](C(=O)N(C)[C@@H](Cc2ccccc2)C(=O)N[C@@H](C)C(=O)N2CCCCC2)NC(=O)[C@H](CC(C)C)N(C)C(=O)[C@H](CC(C)C)N(C)C1=O` [DP-587] ([dV][NMeA][NMeF][NMeL][Lys(Me2)][Sar]L[NMeL][NMeL]D[NMeF]A-Piperidide; lactam N-10) to `C/N=C(\NC)NCCC[C@@H]1NC(=O)[C@H](CC(C)C)N(C)C(=O)[C@H](Cc2ccccc2)N(C)C(=O)[C@H](C)N(C)C(=O)[C@@H](C(C)C)NC(=O)C[C@@H](C(=O)N(C)[C@@H](Cc2ccccc2)C(=O)N[C@@H](C)C(=O)N2CCCCC2)NC(=O)[C@H](CC(C)C)N(C)C(=O)[C@H](CC(C)C)N(C)C(=O)[C@H](C(C)C)NC(=O)CN(C)C1=O` [DP-590] ([dV][NMeA][NMeF][NMeL][Arg(Me2s)][Sar]V[NMeL][NMeL]D[NMeF]A-Piperidide; lactam N-10), the Papp at 18 hours, 50 µM falls from 3.3 ×10⁻⁶ cm/s to 1.4 ×10⁻⁶ cm/s (2.4-fold).

Compared with `CC(C)C[C@@H]1NC(=O)[C@H](CC(C)C)N(C)C(=O)[C@H](CCCCN(C)C)NC(=O)[C@H](CC(C)C)N(C)C(=O)[C@H](Cc2ccccc2)N(C)C(=O)[C@H](CC(C)C)N(C)C(=O)[C@@H](C(C)C)NC(=O)C[C@@H](C(=O)N(C)[C@@H](Cc2ccccc2)C(=O)N[C@@H](C)C(=O)N2CCCCC2)NC(=O)[C@H](CC(C)C)N(C)C(=O)[C@H](CC(C)C)N(C)C1=O` [DP-588] ([dV][NMeL][NMeF][NMeL][Lys(Me2)][NMeL]L[NMeL][NMeL]D[NMeF]A-Piperidide; lactam N-10), `CC(C)C[C@@H]1NC(=O)[C@H](CCCCN(C)C)NC(=O)[C@H](Cc2ccccc2)N(C)C(=O)[C@H](CC(C)C)NC(=O)[C@H](CC(C)C)N(C)C(=O)[C@H](Cc2ccccc2)NC(=O)[C@H](CC(C)C)N(C)C(=O)[C@H](CC(C)C)N(C)C(=O)[C@H](Cc2ccccc2)NC(=O)CN(C)C(=O)C[C@@H](C(=O)N(C)[C@@H](Cc2ccccc2)C(=O)N[C@@H](C)C(=O)N2CCCCC2)NC1=O` [DP-594] ([Sar]F[NMeL][NMeL]F[NMeL]L[NMeF][Lys(Me2)]LD[NMeF]A-Piperidide; lactam N-11) is 2.2-fold higher in Papp at 18 hours, 50 µM: 0.6 ×10⁻⁶ cm/s for the first, 1.3 ×10⁻⁶ cm/s for the second.

First: CC(C)C[C@@H]1NC(=O)[C@H](CC(C)C)N(C)C(=O)[C@H](C(C)C)NC(=O)C[C@H](C)NC(=O)CN(C)C(=O)[C@H](CC(C)C)NC(=O)[C@H](CO)N(C)C(=O)[C@H](CC(C)C)N(C)C(=O)[C@H](CC(C)C)N(C)C(=O)[C@H](CC(C)C)N(C)C(=O)[C@@H](CC(C)C)NC1=O [DP-640] (cyclo(L[Sar][β3hA]V[NMeL]L[dL][NMeL][NMeL][NMeL][NMeS]))
Second: CC[C@@H]1NC(=O)[C@H](CO)N(C)C(=O)[C@H](CC(C)C)N(C)C(=O)[C@H](CC(C)C)N(C)C(=O)[C@H](CC(C)C)N(C)C(=O)[C@@H](C)NC(=O)[C@H](CC(C)C)NC(=O)C[C@@H](C(F)(F)F)NC(=O)[C@H](C(C)C)NC(=O)[C@H](CC(C)C)N(C)C(=O)CN(C)C1=O [DP-656] (cyclo([Abu][Sar][NMeL]V[X2]L[dA][NMeL][NMeL][NMeL][NMeS]))
The Papp at 18 hours, 50 µM of the first is 1.7-fold higher: 50 ×10⁻⁶ cm/s for the first, 30 ×10⁻⁶ cm/s for the second.

Going from `CC(C)C[C@H]1C(=O)N[C@@H](C(C)C)C(=O)N(C)[C@@H](CC(C)C)C(=O)N[C@@H](C)C(=O)N[C@H](C)C(=O)N(C)[C@@H](CC(C)C)C(=O)N(C)[C@@H](CC(C)C)C(=O)N(C)[C@@H](CC(C)C)C(=O)N(C)[C@@H](CO)C(=O)N[C@H](C(F)(F)F)CC(=O)N(C)CC(=O)N1C` [DP-654] (cyclo(A[dA][NMeL][NMeL][NMeL][NMeS][X2][Sar][NMeL]V[NMeL])) to `CC[C@H](C)[C@@H]1NC(=O)[C@H](CC(C)C)N(C)C(=O)[C@H](C)N(C)C(=O)[C@H](Cc2ccccc2)N(C)C(=O)[C@@H](C)N(C)C(=O)C[C@@H](C(=O)N2CCCCC2)NC(=O)[C@H](CC(C)C)N(C)C(=O)[C@H]([C@@H](C)O)NC(=O)[C@H](CO)NC(=O)[C@H](CC(C)C)NC(=O)[C@H](C)N(C)C(=O)[C@H](CC(C)C)N(C)C(=O)[C@H](Cc2ccccc2)NC(=O)[C@H](CC(C)C)N(C)C1=O` [DP-959] ([dNMeA][NMeF][NMeA][NMeL]I[NMeL]F[NMeL][NMeA]LST[NMeL]D-Piperidide; lactam N-14), the Papp at 18 hours, 50 µM falls from 23 ×10⁻⁶ cm/s to 2.9 ×10⁻⁶ cm/s (7.9-fold).

Going from `CC(C)C[C@@H]1NC(=O)[C@H](Cc2ccccc2)N(C)C(=O)[C@H](Cc2ccccc2)N(C)C(=O)[C@H](C(C)C)NC(=O)[C@H](CC(C)C)N(C)C(=O)[C@H](Cc2nn[nH]n2)NC(=O)[C@H](CC(C)C)N(C)C(=O)C[C@@H](C(=O)N2CCCCC2)NC(=O)[C@H](CC(C)C)N(C)C1=O` [DP-907] ([NMeL][Ala(1H-tetrazol-5-yl)][NMeL]V[NMeF][NMeF]L[NMeL]D-Piperidide; lactam N-9) to `CC[C@H](C)[C@H](NC(=O)[C@H](CC(C)C)NC(=O)[C@H](Cc1ccccc1)NC(=O)[C@@H]1CCCN1C(=O)[C@H](CC(C)C)NC(=O)[C@@H]1CC(=O)N[C@@H](Cc2ccccc2)C(=O)N(C)[C@@H](Cc2ccccc2)C(=O)N(C)[C@@H](CC(C)C)C(=O)N[C@@H]([C@@H](C)O)C(=O)N(C)[C@@H](C)C(=O)N(C)[C@@H](CC(C)C)C(=O)N1)C(=O)N1CCCCC1` [DP-910] (F[NMeF][NMeL]T[NMeA][NMeL]DLPFLI-Piperidide; lactam N-7), the Papp at 18 hours, 50 µM falls from 21 ×10⁻⁶ cm/s to 0.16 ×10⁻⁶ cm/s (130-fold).

Same assay, conditions: membrane permeation rate (Pe); 50 mM MOPSO buffer pH 6.5 with 5.0% glycocholic acid, 37° C., 18 hours

In the case of `C/N=C(\NC)NCCC[C@@H]1NC(=O)[C@H](Cc2ccccc2)N(C)C(=O)[C@H](CC(C)C)NC(=O)[C@H](CC(C)C)N(C)C(=O)[C@H](Cc2ccccc2)NC(=O)[C@H](CC(C)C)N(C)C(=O)[C@H](CC(C)C)N(C)C(=O)[C@H](Cc2ccccc2)NC(=O)CN(C)C(=O)C[C@@H](C(=O)N(C)[C@@H](Cc2ccccc2)C(=O)N[C@@H](C)C(=O)N2CCCCC2)NC(=O)[C@H](CC(C)C)NC1=O` [DP-598] ([Sar]F[NMeL][NMeL]F[NMeL]L[NMeF][Arg(Me2s)]LD[NMeF]A-Piperidide; lactam N-11), the “iPAMPA Pe” value is reported as 1.0E−07.
